Columns and labels:
[1] = tested on: soluble epoxide hydrolase (sEH); assay: Fluorescent assay for mouse and human soluble epoxide hydrolase (CMNPC substrate); format: biochemical; settings: substrate CMNPC 5 μM, 30° C.
Description: Fluorescent Assay for Mouse and Human Soluble Epoxide Hydrolase Recombinant mouse sEH (MsEH) and human sEH (HsEH) were produced in a baculovirus expression system as previously reported. Grant et al., J. Biol. Chem., 268:17628-17633 (1993); Beetham et al., Arch. Biochem. Biophys., 305:197-201 (1993). The expressed proteins were purified from cell lysate by affinity chromatography. Wixtrom et al., Anal. Biochem., 169:71-80 (1988). Protein concentration was quantified using the Pierce BCA assay using bovine serum albumin as the calibrating standard. The preparations were at least 97% pure as judged by SDS-PAGE and scanning densitometry. They contained no detectable esterase or glutathione transferase activity which can interfere with the assay. The assay was also evaluated with similar results in crude cell lysates or homogenate of tissues. The IC50s for each inhibitor were determined according to the following procedure: […] Jones P. D. et. al.; Analytical Biochemistry 2005; 343: pp. 66-75) Bis/Tris HCl 25 mM pH 7.0 containing 0.1 mg/mL of BSA (buffer […] at 0.25 mM in DMSO. Mother solution of enzyme in buffer A (Mouse sEH at 6 μg/mL and Human sEH at 5 μg/mL). Inhibitor dissolved in DMSO at the appropriate concentration. In a black 96 well plate, fill all the wells with 150 μL of buffer A. Add 2 μL of DMSO in well A2 and A3, and then add 2 μL of inhibitor solution in A1 and A4 through A12. Add 150 μL of buffer A in row A, then mix several time and transfer 150 μL to row B. Repeat this operation up to row H. The 150 μL removed from row H is discarded. Add 20 μL of buffer A in column 1 and 2, then add 20 μL of enzyme solution to column 3 to 12. Incubate the plate for 5 minutes in the plate reader at 30° C. During incubation prepare the working solution of substrate by mixing 3.68 mL of buffer A (4×0.920 mL) with 266 μL (2×133 μL) of substrate solution). At t=0, add 30 μL of working substrate solution with multi-channel pipette labeled “Briggs 303” and start the reading ([S]final: 5 μM). Read with ex: 330 nm (20 nm) and em: 465 nm (20 nm) every 30 second for 10 minutes. The velocities are used to analyze and calculate the IC50s.

| % Inhibition ([1]; Conc. 50 nM) | further results | Compound |
| --- | --- | --- |
| 95% | – | O=C(Nc1ccc(C(F)(F)F)cc1)Nc1ccc(S(=O)(=O)N2CCOCC2)cc1 [Compound 27, 1-[4-(Morpholine-4-sulfonyl)-phenyl]-3-(4-trifluoromethyl-phenyl)-urea] |
| – | % Inhibition ([1]; Conc. 500 nM): 92% | NS(=O)(=O)c1ccc(NC(=O)NC23CC4CC(CC(C4)C2)C3)cc1 [Compound 1, 4-(3-Adamantan-1-yl-ureido)-benzenesulfonamide] |
| 80% | melting point: 172 to 175 °C | O=C(O)CCCNS(=O)(=O)c1ccc(NC(=O)Nc2ccc(C(F)(F)F)cc2)cc1 [Compound 23, 4-{4-[3-(4-Trifluoromethyl-phenyl)-ureido]-benzenesulfonylamino}-butyric acid] |
| 99% | melting point: 196 to 198 °C | O=C(Nc1ccc(C(F)(F)F)cc1)Nc1cccc(S(=O)(=O)Nc2ccc(Cl)cc2)c1 [Compound 26, N-(4-Chloro-phenyl)-3-[3-(4-trifluoromethyl-phenyl)-ureido]-benzenesulfonamide] |
| 94% | – | O=C(Nc1ccc(C(F)(F)F)cc1)Nc1cccc(S(=O)(=O)NCCN2CCOCC2)c1 [Compound 8, N-(2-Morpholin-4-yl-ethyl)-3-[3-(4-trifluoromethyl-phenyl)-ureido]-benzenesulfonamide] |
| 75% | – | NS(=O)(=O)c1cccc(NC(=O)Nc2ccc(C(F)(F)F)cc2)c1 [Compound 4, 3-[3-(4-Trifluoromethyl-phenyl)-ureido]-benzenesulfonamide] |
| 93% | – | O=C(Nc1ccc(C(F)(F)F)cc1)Nc1cccc(S(=O)(=O)N2CCOCC2)c1 [Compound 28, 1-[3-(Morpholine-4-sulfonyl)-phenyl]-3-(4-trifluoromethyl-phenyl)-urea] |
| 90% | – | CC(C)N1CCN(S(=O)(=O)c2ccc(NC(=O)Nc3ccc(C(F)(F)F)cc3)cc2)CC1 [Compound 15, 1-[4-(4-Isopropyl-piperazine-1-sulfonyl)-phenyl]-3-(4-trifluoromethyl-phenyl)-urea] |
| – | % Inhibition ([1]; Conc. 5000 nM): 85%; melting point: 115 to 121 °C | CC(=O)NS(=O)(=O)c1cccc(NC(=O)Nc2ccc(C(F)(F)F)cc2)c1 [Compound 20, N-(3-(3-(4-(trifluoromethyl)phenyl)ureido)phenylsulfonyl)aceta-mide] |
| 99% | – | O=C(Nc1ccc(C(F)(F)F)cc1)Nc1ccc(S(=O)(=O)Nc2ccc(Cl)cc2)cc1 [Compound 25, N-(4-Chloro-phenyl)-4-[3-(4-trifluoromethyl-phenyl)-ureido]-benzenesulfonamide] |
| – | % Inhibition ([1]; Conc. 500 nM): 94% | NS(=O)(=O)c1cccc(NC(=O)NC23CC4CC(CC(C4)C2)C3)c1 [Compound 2, 3-(3-Adamantan-1-yl-ureido)-benzenesulfonamide] |
| 85% | melting point: 238 to 240 °C | CNS(=O)(=O)c1cccc(NC(=O)Nc2ccc(C(F)(F)F)cc2)c1 [Compound 12, N-methyl-3-[3-(4-trifluoromethylphenyl)ureido]benzenesulfonamide] |
| 92% | – | CC(C)N1CCN(S(=O)(=O)c2cccc(NC(=O)Nc3ccc(C(F)(F)F)cc3)c2)CC1 [Compound 16, 1-[3-(4-Isopropyl-piperazine-1-sulfonyl)-phenyl]-3-(4-trifluoromethyl-phenyl)-urea] |
| 91% | – | O=C(Nc1ccc(C(F)(F)F)cc1)Nc1ccc(S(=O)(=O)NCCN2CCOCC2)cc1 [Compound 7, N-(2-Morpholin-4-yl-ethyl)-4-[3-(4-trifluoromethyl-phenyl)-ureido]-benzenesulfonamide] |

Source: patent US20080207621A1, “SOLUBLE EPOXIDE HYDROLASE INHIBITORS” (Arete Therapeutics, Inc., priority 2006, published 2008)
